Data from patent publication US6613762B2, “Gambogic acid, analogs and derivatives as activators of caspases and inducers of apoptosis” (Cytovia, Inc., priority 1999, dated 2003).
Read-outs that look alike come from different tables or passages of the source.

How the values were obtained:
[1] = system: caspase cascade, human breast cancer cell line T-47D; assay: Caspase cascade activation assay (Example 90), T-47D; type: cell-based; conditions: 24 h incubation; for EC50: Homo sapiens, T47D, sigmoidal dose-response, read-out: T-47D EC50 (caspase activation potency); for T-47D Ratio (caspase activity): ratio of net RFU of test compound to control, 0.16 to 10 μM
Experimental: (§1) Human breast cancer cell lines T-47D and ZR-75-1, human prostate cancer cell line PC-3, human leukemia cancer cell line HL-60 and human non-transformed fibroblast cell line MRC-5 cells were grown according to media component mixtures designated by The American Type Culture Collection+10% FCS (Life Technologies, Inc.), in a 5% CO2-95% humidity incubator at 37° C. T-47D, ZR-75-1 and PC-3 cells were maintained at a cell density between 30 and 80% confluency and for HL-60 at a cell density of 0.1 to 0.6×10^6 cells/m. Cells were harvested at 600× g and resuspended at 0.65×10^6 cells/ml into appropriate media +10% FCS. […] The samples were mixed by agitation and incubated at room temperature.
(§2) The EC50 (nM) was determined by a sigmoidal dose-response calculation (Prism 2.0, GraphPad Software Inc.).

[2] = system: caspase cascade, human breast cancer cell line ZR-75-1; assay: Caspase cascade activation assay (Example 90), ZR-75-1; type: cell-based; conditions: 24 h incubation; for EC50: Homo sapiens, ZR-75-1, sigmoidal dose-response, read-out: ZR-75-1 EC50 (caspase activation potency); for ZR-75-1 Ratio (caspase activity): ratio of net RFU of test compound to control, 0.16 to 10 μM
Experimental: as §1, §2

[3] = system: caspase cascade, human prostate cancer cell line PC-3; assay: Caspase cascade activation assay (Example 90), PC-3; type: cell-based; conditions: for EC50: Homo sapiens, read-out: PC-3 EC50 (caspase activation potency); for PC-3 Ratio (caspase activity): ratio of net RFU of test compound to control, 0.16 to 10 μM
Experimental: as §1, §2

[4] = system: caspase cascade, human leukemia cancer cell line HL-60; assay: Caspase cascade activation assay (Example 90), HL-60; type: cell-based; conditions: 24 h incubation; for EC50: Homo sapiens, HL-60, sigmoidal dose-response, read-out: HL-60 EC50 (caspase activation potency)
Experimental: as §1, §2

caspase cascade = assay: Caspase cascade activation assay (Example 90), MRC-5; type: cell-based, human; conditions: human
Experimental: as §1, §2

T-47D cells = assay: Inhibition of cell proliferation (GI50) and cell death (LC50), T-47D; type: cell-based; conditions: Homo sapiens, T47D, 48 h; for CC50: read-out: LC50 (dose for 50% cell death); for GI50: read-out: GI50 (dose for 50% inhibition of cell proliferation)
Experimental: (§3) T47D, ZR-75-1, PC-3, human prostate cancer cell line DU-145, human non-small cell lung cancer cell line A-549, human small cell lung cancer cell line SHP-77, HL-60 and MRC-5 cells were grown and harvested as in Example 90. […] The samples were mixed by agitation and incubated at 37° C. for 2-4 h in a 5% CO2-95% humidity incubator. […] This determines the possible background absorbance of the test compounds. No absorbance for gambogic acid or its analogs or derivatives was found at 490 nm. After the 2-4 h incubation, the samples were read for absorbance as above (ATest).
(§4) Baseline for GI50 (dose for 50% inhibition of cell proliferation) and LC50 (dose for 50% cell death) of initial cell numbers was determined by adding an aliquot of 90 μl of cells or 90 μl of media, respectively, to wells of a 96-well microtiter plate containing 10 μl of a 10% DMSO in RPMI-1640 media solution. […] The samples were mixed by agitation and incubated at 37° C. for 2-4 h in a 5% CO2-95% humidity incubator. Absorbance was read as above, (AT=0) defining absorbance for initial cell number used as baseline in GI50 determinations and (Amin) defining absorbance for media alone used as baseline in LC50 determinations.
(§5) GI50 (dose for 50% inhibition of cell proliferation)
(§6) LC50 (dose for 50% cell death)
(§7) 50=100×[(ATest−Amin)/(AT=0−Amin)]

ZR-75-1 cells = assay: Inhibition of cell proliferation (GI50) and cell death (LC50), ZR-75-1; type: cell-based; conditions: Homo sapiens, ZR-75-1, 48 h
Experimental: as §3, §4, §5, §6, §7

PC-3 cells = assay: Inhibition of cell proliferation (GI50) and cell death (LC50), PC-3; type: cell-based
Experimental: as §3, §4, §5, §6, §7

[5] = system: human prostate cancer cell line DU-145; assay: Inhibition of cell proliferation (GI50) and cell death (LC50), DU-145; type: cell-based
Experimental: as §3, §4, §5, §6, §7

[6] = system: human non-small cell lung cancer cell line A-549; assay: Inhibition of cell proliferation (GI50) and cell death (LC50), A-549; type: cell-based; conditions: Homo sapiens
Experimental: as §3, §4, §5, §6, §7

[7] = system: human small cell lung cancer cell line SHP-77; assay: Inhibition of cell proliferation (GI50) and cell death (LC50), SHP-77; type: cell-based; conditions: Homo sapiens
Experimental: as §3, §4, §5, §6, §7

HL-60 cells = assay: Inhibition of cell proliferation (GI50) and cell death (LC50), HL-60; type: cell-based; conditions: Homo sapiens, HL-60, 48 h
Experimental: as §3, §4, §5, §6, §7

[8] = Inhibition of cell proliferation (GI50) and cell death (LC50), MRC-5; type: cell-based; conditions: human
Experimental: as §3, §4, §5, §6, §7

MRC-5 cells = assay: as above; type: cell-based; conditions: Homo sapiens, MRC5; MRC-5, 48 h; read-out: GI50 (dose for 50% inhibition of cell proliferation)
Experimental: as §3, §4, §5, §6, §7

[9] = system: caspase cascade, human non-transformed fibroblast cell line MRC-5; assay: Caspase cascade activation assay (Example 90), MRC-5; type: cell-based; conditions: ratio of net RFU of test compound to control; 24 h incubation, 0.16 to 10 μM
Experimental: as §1, §2

KB cell line = conditions: cited from earlier work
KB-V1 cell line = conditions: cited from earlier work
[10] = 24 h incubation, sigmoidal dose-response
[11] = read-out: LC50 (dose for 50% cell death)
[12] = read-out: GI50 (dose for 50% inhibition of cell proliferation)
[13] = Homo sapiens, PC-3, 48 h; read-out: GI50 (dose for 50% inhibition of cell proliferation)
[14] = Homo sapiens, DU-145, 48 h; read-out: GI50 (dose for 50% inhibition of cell proliferation)
[15] = 24 h incubation, sigmoidal dose-response, read-out: MRC-5 EC50 (caspase activation potency)
[16] = MRC-5, 48 h, read-out: LC50 (dose for 50% cell death)

| SMILES | EC50 [1] | EC50 [2] | EC50 [3, 10] | EC50 [4] | EC50 at 24 h (caspase cascade) | GI50 (T-47D cells; T-47D) | GI50 (PC-3 cells; [13]) | GI50 [5, 14] | GI50 (MRC-5 cells) | T-47D Ratio (caspase activity) [1] | ZR-75-1 Ratio (caspase activity) [2] | PC-3 Ratio (caspase activity) ([3]; 24 h incubation) | MRC-5 Ratio (caspase activity) [9] | other results |
| --- | --- | --- | --- | --- | --- | --- | --- | --- | --- | --- | --- | --- | --- | --- |
| CC(C)=CCCC1(C)C=Cc2c(O)c3c(c(CC=C(C)C)c2O1)OC12C(=CC4CC1C(C)(C)OC2(C/C=C(/C)C(=O)N1CCCCC1)C4=O)C3=O (stereo not shown) [Example 5, Gambogyl Piperidine] | 210 nM | 783 nM | 900 nM | 200 nM | 631 nM | 50 nM | 500 nM | 500 nM | 800 nM | – | – | – | – | CC50 (T-47D cells): 50 nM; CC50 (ZR-75-1 cells; [11]): 500 nM; GI50 (ZR-75-1 cells; [12]): 300 nM; CC50 (PC-3 cells; Homo sapiens, PC-3, 48 h, read-out: LC50 (dose for 50% cell death)): 500 nM; CC50 ([5]; Homo sapiens, DU-145, 48 h, read-out: LC50 (dose for 50% cell death)): 500 nM; CC50 ([6]; A549, 48 h, read-out: LC50 (dose for 50% cell death)): 5000 nM; GI50 ([6]; A549, A-549, 48 h, read-out: GI50 (dose for 50% inhibition of cell proliferation)): 800 nM; CC50 ([7]; SHP77, 48 h, read-out: LC50 (dose for 50% cell death)): 500 nM; GI50 ([7]; SHP77, SHP-77, 48 h, read-out: GI50 (dose for 50% inhibition of cell proliferation)): 500 nM; CC50 (HL-60 cells; [11]): 800 nM; GI50 (HL-60 cells; [12]): 100 nM; CC50 at 48 h [8]: 800 nM |
| CC(C)=CCC/C(C)=C/Cc1c(O)c(CC=C(C)C)c2c(c1O)C(=O)C1=CC3CC4C(C)(C)OC(C/C=C(/C)C(=O)O)(C3=O)C14O2 (stereo not shown) [Example 2, Gambogenic Acid] | 310 nM | 1160 nM | 1350 nM | 340 nM | – | 500 nM | 3000 nM | 600 nM | 500 nM | – | – | – | – | EC50 (caspase cascade; [15]): 1260 nM; CC50 (T-47D cells; T-47D): 500 nM; CC50 (PC-3 cells; Homo sapiens, PC-3, 48 h; read-out: LC50 (dose for 50% cell death)): 5000 nM; CC50 ([5]; Homo sapiens, DU-145, 48 h; read-out: LC50 (dose for 50% cell death)): 5000 nM; CC50 [8, 16]: 5000 nM |
| COc1c2c(c(CC=C(C)C)c3c1C(=O)C1=CC4CC5C(C)(C)OC(C/C=C(/C)C(=O)N6CCCCC6)(C4=O)C15O3)OC(C)(CCC=C(C)C)C=C2 (stereo not shown) [Example 7, 6-Methoxy-gambogyl Piperidine] | – | – | – | – | 1200 nM | – | – | – | – | 14.4 | 13.4 | 2.3 | 9.4 | – |
| COC(=O)/C(C)=C\CC12OC(C)(C)C3CC(C=C4C(=O)c5c(O)c6c(c(CC=C(C)C)c5OC431)OC(C)(CCC=C(C)C)C=C6)C2=O (stereo not shown) [Example 4, Methyl Gambogate] | – | – | – | – | – | – | – | – | – | 16.8 | 14.9 | 3.9 | 27.8 | EC50 ([3]; 24 h): 1330 nM; HL-60 Ratio (caspase activity) ([4]; ratio of net RFU of test compound to control, 0.16 to 10 μM): 7.7; EC50 at 24 h (caspase cascade; [15]): 501 nM; CC50 at 48 h [8, 16]: 500 nM |
| CC(C)=CCCC1(C)C=Cc2c(O)c3c(c(CC=C(C)C)c2O1)OC12C(=CC4CC1C(C)(C)OC2(C/C=C(\C)C(=O)O)C4=O)C3=O (stereo not shown) [Example 18, Isogambogic Acid] | – | – | – | – | – | – | – | – | – | – | – | – | – | Cytotoxicity against KB cell line (KB cell line): cytotoxic; Cytotoxicity against KB-V1 cell line (KB-V1 cell line): cytotoxic |
